Values quoted from earlier work, collected in patent US7179597B2, “Genetic diagnosis for QT prolongation related adverse drug reactions” (Georgetown University, priority 2000, dated 2007).
Where two headings read alike, the source gives them in different places.

What was measured:
[1] = cited from earlier work
[2] = cited from earlier work; remark: listed apart in the source
CYP3A = details: Table 3; cited from earlier work
CYP2D6 = CYP2D6 (Homo sapiens, UniProt P10635); details: Table 3; cited from earlier work
[3] = Table 2, FDA / medical literature

Sequence of CYP2D6 (P10635 whole entry): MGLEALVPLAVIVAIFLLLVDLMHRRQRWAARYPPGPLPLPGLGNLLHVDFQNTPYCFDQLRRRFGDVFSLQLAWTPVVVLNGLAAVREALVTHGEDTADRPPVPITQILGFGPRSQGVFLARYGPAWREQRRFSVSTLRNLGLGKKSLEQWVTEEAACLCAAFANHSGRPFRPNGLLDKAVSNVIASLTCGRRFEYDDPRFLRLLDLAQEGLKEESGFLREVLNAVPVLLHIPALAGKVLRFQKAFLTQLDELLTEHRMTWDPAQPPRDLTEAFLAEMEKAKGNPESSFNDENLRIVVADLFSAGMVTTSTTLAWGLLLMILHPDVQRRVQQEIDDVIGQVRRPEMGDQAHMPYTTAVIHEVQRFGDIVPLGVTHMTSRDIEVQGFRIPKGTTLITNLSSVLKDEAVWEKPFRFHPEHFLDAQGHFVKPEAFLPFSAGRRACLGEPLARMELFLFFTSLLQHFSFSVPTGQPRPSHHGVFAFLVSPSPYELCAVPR

For `CCCCc1oc2ccccc2c1C(=O)c1cc(I)c(OCCN(CC)CC)c(I)c1` [Amiodarone], the TdP [1, 3] is given as “Yes” and the TdP ([1]; Table 3) is given as “Yes”.
For `Clc1ccc2c(c1)C(N1CCNCC1)=Nc1ccccc1O2` [Amoxapine], the QT ([2]; Table 2, drug labeling) is listed as “Yes”.
In the case of `COc1ccc(CCN2CCC(Nc3nc4ccccc4n3Cc3ccc(F)cc3)CC2)cc1` [Astemizole], the TdP [1, 3] is listed as “Yes”, the TdP ([1]; Table 3) is listed as “Yes” and the QT ([2]; Table 2, drug labeling) is listed as “Yes”. The QT ([2]; Table 3) was “Yes” and the “Interactions: cytochrome P-450 isoform 3A, substrate or inhibitor” value (CYP3A) was “Substrate”.
In the case of `CN1CCCC(n2nc(Cc3ccc(Cl)cc3)c3ccccc3c2=O)CC1` (stereo not shown) [Azelastine], the QT ([2]; Table 2, drug labeling) is given as “Yes”.
For `CC(C)COCC(CN(Cc1ccccc1)c1ccccc1)N1CCCC1` (stereo not shown) [Bepridil], the TdP [1, 3] is listed as “Yes” and the QT ([2]; Table 2, drug labeling) is listed as “Yes”.
For `CN(C)CCCN1c2ccccc2Sc2ccc(Cl)cc21` [Chlorpromazine], the TdP [1, 3] is given as “Yes” and the QT ([2]; Table 2, drug labeling) is given as “Yes”.
For `COc1cc(N)c(Cl)cc1C(=O)NC1CCN(CCCOc2ccc(F)cc2)CC1OC` (stereo not shown) [Cisapride], the TdP [1, 3] is listed as “Yes”, the TdP ([1]; Table 3) is listed as “Yes” and the QT ([2]; Table 2, drug labeling) is listed as “Yes”. The QT ([2]; Table 3) was “Yes” and the “Interactions: cytochrome P-450 isoform 3A, substrate or inhibitor” value (CYP3A) was “Substrate”.
In the case of `CC[C@H]1OC(=O)[C@H](C)[C@@H](O[C@H]2C[C@@](C)(OC)[C@@H](O)[C@H](C)O2)[C@H](C)[C@@H](O[C@@H]2O[C@H](C)C[C@H](N(C)C)[C@H]2O)[C@](C)(OC)C[C@@H](C)C(=O)[C@H](C)[C@@H](O)[C@]1(C)O` [Clarithromycin], the QT ([2]; Table 2, drug labeling) is listed as “Yes” and the QT ([2]; Table 3) is listed as “Yes”.
For `CN1CCC[C@@H]1CCO[C@](C)(c1ccccc1)c1ccc(Cl)cc1` [Clemastine], the TdP [1, 3] is given as “Maybe—” and the TdP ([1]; Table 3) is given as “Maybe—”.
For `CNCCCN1c2ccccc2CCc2ccccc21` [Desipramine], the “Interactions: cytochrome P-450 isoform 2D6, substrate or inhibitor” value (CYP2D6) is given as “Substrate”, the QT ([2]; Table 2, drug labeling) is given as “Yes” and the QT ([2]; Table 3) is given as “Yes”.
In the case of `CC(C)N(CCC(C(N)=O)(c1ccccc1)c1ccccn1)C(C)C` (stereo not shown) [Disopyramide], the TdP [1, 3] is listed as “Yes” and the QT ([2]; Table 2, drug labeling) is listed as “Yes”.
For `CN(C)CCC=C1c2ccccc2COc2ccccc21` [Doxepin], the TdP [1, 3] is listed as “Yes” and the QT ([2]; Table 2, drug labeling) is listed as “Yes”.
In the case of `CC[C@H]1OC(=O)[C@H](C)[C@@H](O[C@H]2C[C@@](C)(OC)[C@@H](O)[C@H](C)O2)[C@H](C)[C@@H](O[C@@H]2O[C@H](C)C[C@H](N(C)C)[C@H]2O)[C@](C)(O)C[C@@H](C)C(=O)[C@H](C)[C@@H](O)[C@]1(C)O` [Erythromycin], the QT ([2]; Table 2, drug labeling) is given as “Yes” and the QT ([2]; Table 3) is given as “Yes”.
For `O=C(NCC1CCCCN1)c1cc(OCC(F)(F)F)ccc1OCC(F)(F)F` (stereo not shown) [Flecainide], the “Interactions: cytochrome P-450 isoform 2D6, substrate or inhibitor” value (CYP2D6) is listed as “Substrate”, the QT ([2]; Table 2, drug labeling) is listed as “Yes” and the QT ([2]; Table 3) is listed as “Yes”.
In the case of `C[C@]12CCC(=O)C=C1CC[C@H]1[C@@H]3CC[C@](O)(C(=O)CO)[C@@]3(C)C[C@H](O)[C@@]12F` [Fludrocortisone], the QT ([2]; Table 2, drug labeling) is given as “Yes”.
For `OCCN1CCN(CCCN2c3ccccc3Sc3ccc(C(F)(F)F)cc32)CC1` [Fluphenazine], the TdP [1, 3] is given as “Yes”, the TdP ([1]; Table 3) is given as “Yes” and the QT ([2]; Table 2, drug labeling) is given as “Yes”. The QT ([2]; Table 3) was “Yes”.
For `O=C(O)P(=O)(O)O` [Foscarnet], the QT ([2]; Table 2, drug labeling) is listed as “Yes”.
For `O=C1NC(c2ccccc2)(c2ccccc2)C(=O)N1COP(=O)(O)O` [Fosphenytoin], the QT ([2]; Table 2, drug labeling) is listed as “Yes”.
For `CCCCN(CCCC)CCC(O)c1cc2c(Cl)cc(Cl)cc2c2cc(C(F)(F)F)ccc12` (stereo not shown) [Halofantrine], the “Interactions: cytochrome P-450 isoform 2D6, substrate or inhibitor” value (CYP2D6) is given as “Inhibitor”, the QT ([2]; Table 2, drug labeling) is given as “Yes” and the QT ([2]; Table 3) is given as “Yes”.
For `CN(C)CCCN1c2ccccc2CCc2ccccc21` [Imipramine], the QT ([2]; Table 2, drug labeling) is listed as “Yes” and the QT ([2]; Table 3) is listed as “Yes”.
For `CC1Cc2ccccc2N1NC(=O)c1ccc(Cl)c(S(N)(=O)=O)c1` (stereo not shown) [Indapamide], the TdP [1, 3] is given as “Maybe—” and the QT ([2]; Table 2, drug labeling) is given as “Yes”.
In the case of `COC(=O)C1=C(C)NC(C)=C(C(=O)OC(C)C)C1c1cccc2nonc12` (stereo not shown) [Isradipine], the QT ([2]; Table 2, drug labeling) is listed as “Yes”.
For `CCC(C)n1ncn(-c2ccc(N3CCN(c4ccc(OCC5COC(Cn6cncn6)(c6ccc(Cl)cc6Cl)O5)cc4)CC3)cc2)c1=O` (stereo not shown) [Itraconazole], the “Interactions: cytochrome P-450 isoform 3A, substrate or inhibitor” value (CYP3A) is listed as “Inhibitor”.
In the case of `CNCCCC12CCC(c3ccccc31)c1ccccc12` [Maprotiline], the TdP [1, 3] is given as “Yes” and the QT ([2]; Table 2, drug labeling) is given as “Yes”.
For `CCOC(=O)Nc1ccc2c(c1)N(C(=O)CCN1CCOCC1)c1ccccc1S2` [Moricizine], the TdP [1, 3] is listed as “Yes”.
In the case of `CNS(=O)(=O)CCc1ccc2[nH]cc(C3CCN(C)CC3)c2c1` [Naratriptan], the QT ([2]; Table 2, drug labeling) is given as “Yes”.
In the case of `COC(=O)C1=C(C)NC(C)=C(C(=O)OCCN(C)Cc2ccccc2)C1c1cccc([N+](=O)[O-])c1` (stereo not shown) [Nicardipine], the QT ([2]; Table 2, drug labeling) is listed as “Yes”.
In the case of `CNCCC=C1c2ccccc2CCc2ccccc21` [Nortriptyline], the QT ([2]; Table 2, drug labeling) is given as “Yes”.
In the case of `N=C(N)c1ccc(OCCCCCOc2ccc(C(=N)N)cc2)cc1` [Pentamidine], the TdP [1, 3] is listed as “Yes”.
In the case of `OCCN1CCN(CCCN2c3ccccc3Sc3ccc(Cl)cc32)CC1` [Perphenazine], the QT ([2]; Table 2, drug labeling) is listed as “Yes”.
For `O=c1[nH]c2ccccc2n1C1CCN(CCCC(c2ccc(F)cc2)c2ccc(F)cc2)CC1` [Pimozide], the TdP [1, 3] is given as “Yes” and the QT ([2]; Table 2, drug labeling) is given as “Yes”.
For `CCN(CC)CCNC(=O)c1ccc(N)cc1` [Procainamide], the QT ([2]; Table 2, drug labeling) is listed as “Yes”.
For `CNCCCC1c2ccccc2C=Cc2ccccc21` [Protriptyline], the QT ([2]; Table 2, drug labeling) is given as “Yes” and the QT ([2]; Table 3) is given as “Yes”.
For `OCCOCCN1CCN(C2=Nc3ccccc3Sc3ccccc32)CC1` [Quetiapine], the QT ([2]; Table 2, drug labeling) is listed as “Yes”.
For `C=C[C@H]1C[N@@]2CC[C@H]1C[C@@H]2[C@@H](O)c1ccnc2ccc(OC)cc12` [Quinidine], the TdP [1, 3] is given as “Yes”, the TdP ([1]; Table 3) is given as “Yes” and the QT ([2]; Table 2, drug labeling) is given as “Yes”. For the same molecule, the QT ([2]; Table 3) was “Yes” and the “Interactions: cytochrome P-450 isoform 3A, substrate or inhibitor” value (CYP3A) was “Substrate”.
In the case of `Cc1nc2n(c(=O)c1CCN1CCC(c3noc4cc(F)ccc34)CC1)CCCC2` [Risperidone], the TdP [1, 3] is given as “Yes”, the TdP ([1]; Table 3) is given as “Yes” and the QT ([2]; Table 2, drug labeling) is given as “Yes”. The QT ([2]; Table 3) was “Yes”.
For `OCc1cc(C(O)CNCCCCCCOCCCCc2ccccc2)ccc1O` (stereo not shown) [Salmeterol], the QT ([2]; Table 2, drug labeling) is listed as “Yes”.
For `CC(C)NCC(O)c1ccc(NS(C)(=O)=O)cc1` (stereo not shown) [Sotalol], the QT ([2]; Table 2, drug labeling) is given as “Yes”.
For `C[C@@H]1CN(c2c(F)c(N)c3c(=O)c(C(=O)O)cn(C4CC4)c3c2F)C[C@H](C)N1` [Sparfloxacin], the TdP [1, 3] is given as “Yes” and the QT ([2]; Table 2, drug labeling) is given as “Yes”.
For `CNS(=O)(=O)Cc1ccc2[nH]cc(CCN(C)C)c2c1` [Sumatriptan], the QT ([2]; Table 2, drug labeling) is listed as “Yes”.
In the case of `CN1CCN(CC/C=C2/c3ccccc3Sc3ccc(S(=O)(=O)N(C)C)cc32)CC1` [Thiothixene], the TdP [1, 3] is listed as “Yes” and the QT ([2]; Table 2, drug labeling) is listed as “Yes”.
In the case of `Clc1ccc2nsnc2c1NC1=NCCN1` [Tizanidine], the QT ([2]; Table 2, drug labeling) is given as “Yes”.
In the case of `Cc1cccc(C)c1NC(=O)C(C)N` (stereo not shown) [Tocainide], the QT ([2]; Table 2, drug labeling) is listed as “Yes”.
For `CN1CCN(CCCN2c3ccccc3Sc3ccc(C(F)(F)F)cc32)CC1` [Trifluoperazine], the TdP [1, 3] is listed as “Yes” and the QT ([2]; Table 2, drug labeling) is listed as “Yes”.
In the case of `COc1ccc(C(CN(C)C)C2(O)CCCCC2)cc1` (stereo not shown) [Venlafaxine], the “Interactions: cytochrome P-450 isoform 2D6, substrate or inhibitor” value (CYP2D6) is listed as “Substrate”, the QT ([2]; Table 2, drug labeling) is listed as “Yes” and the QT ([2]; Table 3) is listed as “Yes”.
In the case of `CN(C)CCc1c[nH]c2ccc(C[C@H]3COC(=O)N3)cc12` [Zolmitriptan], the QT ([2]; Table 2, drug labeling) is listed as “Yes”.
